Source: ChEMBL document CHEMBL1201862, “PubChem BioAssay data set” (2004)
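1) Cells in 96-well plates. 2) Compound, 48 h, 5 concentrations. 3) Linear interpolation between surrounding doses. 4) Unreached endpoint = highest concentration. Here, GI50 denotes the concentration required for 50% inhibition of growth.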 Active and inactive are the calls of the source. Rule as the data show it: active = GI50 up to about 1.1 µM and inactive = higher.

Columns and labels:
Assay in all cases: NCI tumour cell line growth inhibition, 48 h
786-0 = tested on: 786-0
ACHN = tested on: ACHN
HCT-116 = tested on: HCT-116
HT-29 = tested on: HT-29
M14 = tested on: M14
MDA-MB-231 = tested on: MDA-MB-231
MDA-MB-435 = tested on: MDA-MB-435
NCI-H226 = tested on: NCI-H226
NCI-H460 = tested on: NCI-H460
NCI-H522 = tested on: NCI-H522
NCI/ADR-RES = tested on: NCI/ADR-RES
OVCAR-3 = tested on: OVCAR-3
RXF 393 = tested on: RXF 393
SF-295 = tested on: SF-295
SF-539 = tested on: SF-539
SNB-75 = tested on: SNB-75
SR = tested on: SR
SW-620 = tested on: SW-620
TK-10 = tested on: TK-10
UACC-62 = tested on: UACC-62

Row | SMILES | GI50 (786-0) | GI50 (ACHN) | GI50 (HCT-116) | GI50 (HT-29) | GI50 (M14) | GI50 (MDA-MB-231) | GI50 (MDA-MB-435) | GI50 (NCI-H226) | GI50 (NCI-H460) | GI50 (NCI-H522) | GI50 (NCI/ADR-RES) | GI50 (OVCAR-3) | GI50 (RXF 393) | GI50 (SF-295) | GI50 (SF-539) | GI50 (SNB-75) | GI50 (SR) | GI50 (SW-620) | GI50 (TK-10) | GI50 (UACC-62)
1 | CN1C(=O)N(C)C(O)C(Cl)(Br)C1=O (stereo not given) | > 100 µM (inactive) | > 100 µM (inactive) | > 100 µM (inactive) | > 100 µM (inactive) | > 100 µM (inactive) | > 100 µM (inactive) | > 100 µM (inactive) | > 100 µM (inactive) | > 100 µM (inactive) | > 100 µM (inactive) | > 100 µM (inactive) | > 100 µM (inactive) | > 100 µM (inactive) | > 100 µM (inactive) | > 100 µM (inactive) | > 100 µM (inactive) | > 100 µM (inactive) | > 100 µM (inactive) | > 100 µM (inactive) | > 100 µM (inactive)
2 | ClCc1c(-c2ccccc2)nn(-c2ccccc2)c1CCl | 9.59 µM (inactive) |  | 8.09 µM (inactive) | 9.75 µM (inactive) | 15.4 µM (inactive) | > 10 µM (inactive) | 1.78 µM (inactive) | 26.5 µM (inactive) |  | 0.165 µM (active) | 29.4 µM (inactive) | 13.5 µM (inactive) | 12.4 µM (inactive) | 17.2 µM (inactive) | 16.1 µM (inactive) | 4.18 µM (inactive) | 2.33 µM (inactive) | 2.03 µM (inactive) | 14.6 µM (inactive) | 7.18 µM (inactive)
3 | Nc1nc(O)c([I+]c2ccccc2)c(=O)[nH]1 | > 100 µM (inactive) | > 100 µM (inactive) | > 100 µM (inactive) | > 100 µM (inactive) |  | > 100 µM (inactive) | > 100 µM (inactive) | > 100 µM (inactive) | > 100 µM (inactive) | > 100 µM (inactive) | > 100 µM (inactive) | > 100 µM (inactive) | > 100 µM (inactive) | > 100 µM (inactive) | > 100 µM (inactive) | > 100 µM (inactive) | > 100 µM (inactive) | > 100 µM (inactive) | > 100 µM (inactive) | 
4 | OCc1ccc(-c2ccc(-c3ccc(CO)s3)o2)s1 | 4.6 µM (inactive) | 11.3 µM (inactive) | 0.0622 µM (active) | 0.432 µM (active) | 30 µM (inactive) | 41.4 µM (inactive) | 4.05 µM (inactive) | 0.0375 µM (active) | 0.0557 µM (active) | 29.2 µM (inactive) | 13.2 µM (inactive) | 0.0703 µM (active) | 0.285 µM (active) | 7.4 µM (inactive) | 14.2 µM (inactive) | 36.6 µM (inactive) | 3.6 µM (inactive) | 0.224 µM (active) | 0.0249 µM (active) | 0.0142 µM (active)
5 | CCCCC1C(=O)N(c2ccc(S(=O)(=O)Nc3ccccn3)cc2)N(c2ccc(O)c(C(=O)O)c2)C1=O (stereo not given) | > 100 µM (inactive) | > 100 µM (inactive) | > 100 µM (inactive) | > 100 µM (inactive) | > 100 µM (inactive) | > 100 µM (inactive) | > 100 µM (inactive) | > 100 µM (inactive) | > 100 µM (inactive) | > 100 µM (inactive) | > 100 µM (inactive) | > 100 µM (inactive) | > 100 µM (inactive) | > 100 µM (inactive) | > 100 µM (inactive) | > 100 µM (inactive) | > 100 µM (inactive) | > 100 µM (inactive) |  | > 100 µM (inactive)
6 | CSc1ccc(NC(=O)C2CCCCC2C(=O)O)cc1 (stereo not given) | > 100 µM (inactive) | > 100 µM (inactive) | > 100 µM (inactive) | > 100 µM (inactive) | > 100 µM (inactive) | > 100 µM (inactive) | > 100 µM (inactive) | > 100 µM (inactive) | > 100 µM (inactive) | > 100 µM (inactive) | > 100 µM (inactive) | > 100 µM (inactive) | > 100 µM (inactive) | > 100 µM (inactive) | > 100 µM (inactive) | > 100 µM (inactive) | > 100 µM (inactive) | > 100 µM (inactive) | > 100 µM (inactive) | > 100 µM (inactive)
7 | CCOC(=O)c1csc(-c2cn(C)c3c2C(=O)C(OC)=CC3=O)n1 | > 100 µM (inactive) | 34.8 µM (inactive) | 18.3 µM (inactive) | 48.2 µM (inactive) | 14 µM (inactive) | 18.3 µM (inactive) | 3.27 µM (inactive) | > 83 µM (inactive) | 8.73 µM (inactive) | 36.6 µM (inactive) | 22.5 µM (inactive) | 5.82 µM (inactive) | 23.6 µM (inactive) | 25 µM (inactive) | 27.6 µM (inactive) | 30.3 µM (inactive) | > 53.5 µM (inactive) | 55.2 µM (inactive) | > 100 µM (inactive) | 21.2 µM (inactive)
